We go through 26 molecules from ChEMBL document CHEMBL1131369, “Isoxazolylthioamides as potential immunosuppressants a combinatorial chemistry approach” (Bioorg Med Chem Lett, 1998).

By IC50 is commonly meant the concentration that inhibits the measured activity by half.

The target in assay [1] is Dihydroorotate dehydrogenase (quinone), mitochondrial (Homo sapiens, UniProt Q02127). As to the kind of experiment: Immunosuppressive activity expressed as ability to inhibit human recombinant dihydroorotate dehydrogenase (DHODH).
Sequence of Dihydroorotate dehydrogenase (quinone), mitochondrial (Q02127 whole entry): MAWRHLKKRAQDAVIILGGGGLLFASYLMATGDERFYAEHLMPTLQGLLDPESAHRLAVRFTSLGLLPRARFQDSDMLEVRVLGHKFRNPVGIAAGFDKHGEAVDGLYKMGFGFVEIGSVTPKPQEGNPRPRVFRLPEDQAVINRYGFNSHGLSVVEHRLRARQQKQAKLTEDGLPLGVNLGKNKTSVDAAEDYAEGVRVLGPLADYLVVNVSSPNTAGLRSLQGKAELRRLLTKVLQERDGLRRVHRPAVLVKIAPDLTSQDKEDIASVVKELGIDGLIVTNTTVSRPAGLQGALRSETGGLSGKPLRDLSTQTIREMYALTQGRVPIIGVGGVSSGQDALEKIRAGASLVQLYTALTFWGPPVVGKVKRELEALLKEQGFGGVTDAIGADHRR
The species named for assay [2] is Mus musculus. As to the kind of experiment: Compound was tested in vitro for immunosuppressive activity which was measured in the mouse mixed lymphocyte reaction. It counts as functional.

As to `FC(F)(F)Oc1ccc(NC(=S)c2cnoc2C2CCCCC2)cc1`, the half-inhibitory concentration (IC50) in assay [1] was > 50 µM.

Turning to `CCc1oncc1/C(S)=N/c1ccc(C(F)(F)F)cc1`, the IC50 in assay [1] was found to be 3 µM.

In the case of `CC(C)(C)c1oncc1/C(S)=N/c1ccc(C(F)(F)F)cc1`, the IC50 in assay [1] was > 50 µM.

Consider `CN(C)c1ccc(NC(=S)c2cnoc2C2CCCCC2)cc1`, for which the IC50 in assay [1] was > 50 µM.

Turning to `N#Cc1ccc(NC(=S)c2cnoc2C2CC2)cc1`, in assay [1], the IC50 was determined as 9.3 µM.

For the molecule `CN(C)c1ccc(NC(=S)c2cnoc2C(C)(C)C)cc1`, the IC50 in assay [1] is > 50 µM.

With `Cc1oncc1C(=S)Nc1ccc(C#N)cc1`, the IC50 in assay [1] was 35 µM.

In the case of `CCc1oncc1/C(S)=N/c1ccc(OC(F)(F)F)cc1`, the IC50 in assay [1] came to 0.7 µM.

Regarding `CCCCCCc1oncc1/C(S)=N/c1ccc(C(F)(F)F)cc1`, the IC50 in assay [1] was > 50 µM.

Consider `CN(C)c1ccc(NC(=S)c2cnoc2C2CC2)cc1`, for which the IC50 in assay [1] is > 50 µM.

In the case of `FC(F)(F)Oc1ccc(NC(=S)c2cnoc2C2CC2)cc1`, in assay [1], the IC50 is 0.8 µM.

As to `CCc1oncc1/C(S)=N/c1ccc(N(C)C)cc1`, the IC50 in assay [1] stood at 40.4 µM.

For `CC(C)(C)c1oncc1/C(S)=N/c1ccc(C#N)cc1`, in assay [1], the IC50 was > 50 µM.

On to `CCCCCCc1oncc1/C(S)=N/c1ccc(OC(F)(F)F)cc1`, for which, in assay [1], the IC50 is > 50 µM.

As for `Cc1oncc1C(=S)Nc1ccc(C(F)(F)F)cc1`, the IC50 in assay [1] was > 50 µM; in assay [2], 23 µM.

On to `Cc1oncc1C(=S)Nc1ccc(N(C)C)cc1`, for which the IC50 in assay [1] is > 50 µM.

Consider `Cc1oncc1/C(S)=N/c1ccc(OC(F)(F)F)cc1`, for which, in assay [1], the IC50 turned out to be 7.2 µM.

Consider `CC(=O)/C(C#N)=C(/S)Nc1ccc(C(F)(F)F)cc1`, for which the IC50 worked out at 0.8 µM in assay [1] and 11 µM in assay [2].

As to `FC(F)(F)c1ccc(NC(=S)c2cnoc2C2CC2)cc1`, the IC50 in assay [1] worked out at 3.2 µM.

In the case of `CCc1oncc1C(=S)Nc1ccc(C#N)cc1`, the IC50 in assay [1] amounted to 11 µM.

With `N#Cc1ccc(NC(=S)c2cnoc2C2CCCCC2)cc1`, in assay [1], the IC50 is > 50 µM.

Turning to `FC(F)(F)c1ccc(NC(=S)c2cnoc2C2CCCCC2)cc1`, the IC50 in assay [1] was > 50 µM.

With `CCCCCCc1oncc1C(=S)Nc1ccc(N(C)C)cc1`, the IC50 in assay [1] was > 50 µM.

As for `CC(C)(C)c1oncc1C(=S)Nc1ccc(OC(F)(F)F)cc1`, the IC50 in assay [1] was > 50 µM.

Take `CCCCCCc1oncc1C(=S)Nc1ccc(C#N)cc1`: the IC50 in assay [1] is > 50 µM.

Regarding `C/C(O)=C(/C#N)C(=O)Nc1ccc(C(F)(F)F)cc1`, in assay [2], the IC50 worked out at 10 µM.
